Results: US20230322723A1, “COMPOUNDS FOR SUPPRESSING EGFR MUTANT CANCER AND PHARMACEUTICAL USE THEREOF” (J2H BIOTECH INC., priority 2020, published 2023)

Tests used:
[1] = Pharmacokinetic evaluation after single oral administration to ICR mice; assay type: in vivo; conditions: for half-life / AUC(0-t): mouse, ICR mice, single oral dose 5 mg/kg, plasma; for AUC(0-t): read-out: AUC0-24
In short: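 ICR mice received a single oral dose of 5 mg/kg suspended in 10% DMSO/90% (30% HPbCD aqueous solution). Plasma concentrations over time were measured by LC-MS/MS after methanol precipitation. AUC0-t, AUC0-∞, Cmax, Tmax and t1/2 came from noncompartmental analysis, given as mean and SD.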

[2] = molecular target: T1, EGFR^L858R+T790M+C797S (Homo sapiens, UniProt P00533, C797S/L858R/T790M); experiment: EGFR protein degradation test (Western blot) in Ba/F3 cells expressing mutant EGFR L858R+T790M+C797S (LTC); assay type: cell-based; conditions: compounds at 0.1 μM and 1 μM, 24 hours, Western blot with EGFR antibody
T1 construct: expressed in transfected cells; host or cells: Ba/F3
In short: (§1)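 EGFR protein level was measured by Western blot on 30 μg lysate, bands quantified by imager. Lysates came from Ba/F3 lines carrying normal, LTC or DTC mutant EGFR, exposed 24 h to compound at 0.1 and 1 μM.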

[3] = tested on: EGFR^del19+T790M+C797S; experiment: EGFR protein degradation test (Western blot) in Ba/F3 cells expressing mutant EGFR del19+T790M+C797S (DTC); assay type: cell-based; conditions: compounds at 0.1 μM and 1 μM, 24 hours, Western blot with EGFR antibody
In short: as §1

T1 sequence (P00533 25-1210 T790M/C797S/L858R): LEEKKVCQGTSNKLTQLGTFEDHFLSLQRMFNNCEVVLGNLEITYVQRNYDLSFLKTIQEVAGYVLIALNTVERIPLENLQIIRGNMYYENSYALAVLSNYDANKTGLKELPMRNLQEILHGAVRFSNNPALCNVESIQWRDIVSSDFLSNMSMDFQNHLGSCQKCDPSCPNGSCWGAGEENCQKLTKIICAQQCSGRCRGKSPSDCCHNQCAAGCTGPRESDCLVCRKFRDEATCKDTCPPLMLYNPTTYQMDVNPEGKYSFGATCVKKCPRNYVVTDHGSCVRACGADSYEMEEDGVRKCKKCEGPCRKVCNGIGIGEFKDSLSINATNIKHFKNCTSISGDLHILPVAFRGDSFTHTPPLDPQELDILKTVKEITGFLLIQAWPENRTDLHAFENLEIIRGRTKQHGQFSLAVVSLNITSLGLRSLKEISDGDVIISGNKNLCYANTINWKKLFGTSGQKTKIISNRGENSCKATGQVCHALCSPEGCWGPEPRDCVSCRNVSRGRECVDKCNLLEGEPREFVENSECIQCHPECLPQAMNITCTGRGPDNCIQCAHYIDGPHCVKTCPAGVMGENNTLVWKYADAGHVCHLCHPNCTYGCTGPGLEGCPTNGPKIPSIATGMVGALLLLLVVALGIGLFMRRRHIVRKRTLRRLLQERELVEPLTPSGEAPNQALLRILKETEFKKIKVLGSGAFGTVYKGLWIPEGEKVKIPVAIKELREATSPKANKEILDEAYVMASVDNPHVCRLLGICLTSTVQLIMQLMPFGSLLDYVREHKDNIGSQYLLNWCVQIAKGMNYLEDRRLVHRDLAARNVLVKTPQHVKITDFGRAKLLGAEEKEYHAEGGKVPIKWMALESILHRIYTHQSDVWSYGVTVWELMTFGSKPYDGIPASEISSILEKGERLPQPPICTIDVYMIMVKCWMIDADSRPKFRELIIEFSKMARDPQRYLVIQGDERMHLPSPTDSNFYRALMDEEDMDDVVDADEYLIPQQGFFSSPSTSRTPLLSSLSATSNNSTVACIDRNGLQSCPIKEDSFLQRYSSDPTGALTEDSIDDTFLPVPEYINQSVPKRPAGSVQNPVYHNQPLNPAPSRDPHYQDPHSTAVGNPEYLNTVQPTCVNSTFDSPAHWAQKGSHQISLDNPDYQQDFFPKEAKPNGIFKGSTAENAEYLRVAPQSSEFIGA

Row | Compound | AUC compared to the corresponding compounds ([1]; 74, 76, 77, 80, 81 vs 45, 71, 51, 65, 53) | half-life [1] [h] | AUC(0-t) [1] [ng·h/mL] | LTC (EGFR^L858R+T790M+C797S) protein degradation [2] | DTC (EGFR^del19+T790M+C797S) protein degradation [3] | AUC compared to the corresponding compounds ([1]; 69, 70, 75, 78, 82 vs compounds 53 and 65)
1 | COc1cc(N2CCN(CC3CCN(C(=O)COc4cccc5c4C(=O)N(C4CCC(=O)NC4=O)C5=O)CC3)CC2)c(C)cc1Nc1ncc(Cl)c(Nc2ccccc2N(C)S(C)(=O)=O)n1 (stereo not shown) [Compound 81, N-(2-((5-chloro-2-((4-(4-((1-(2-((2-(2,6-dioxopiperidin-3-yl)-1,3-dioxoisoindolin-4-yl)oxy)acetyl)piperidin-4-yl)methyl)piperazin-1-yl)-2-methoxy-5-methylphenyl)amino)pyrimidin-4-yl)amino)phenyl)-N-methylmethanesulfonamide] | significantly improved AUC | 4.73 | 502 | ++ (Protein degradation > 80%) | ++ (Protein degradation > 80%) | 
2 | COc1cc(N2CCN(CC3CCN(C(=O)[C@H](C)Oc4cccc5c4C(=O)N(C4CCC(=O)NC4=O)C5=O)CC3)CC2)c(C)cc1Nc1ncc(Cl)c(Nc2ccccc2N(C)S(C)(=O)=O)n1 (stereo partly drawn) [Compound 82, N-(2-((5-chloro-2-((4-(4-((1-((2S)-2-((2-(2,6-dioxopiperidin-3-yl)-1,3-dioxoisoindolin-4-yl)oxy)propanoyl)piperidin-4-yl)methyl)piperazin-1-yl)-2-methoxy-5-methylphenyl)amino)pyrimidin-4-yl)amino)phenyl)-N-methylmethanesulfonamide] |  | 6.03 | 366 | ++ (Protein degradation > 80%) | ++ (Protein degradation > 80%) | significantly improved AUC
